The values below come from ChEMBL document CHEMBL5584314, “Identification of an m6A Natural Inhibitor, Lobeline, That Reverses Lenvatinib Resistance in Hepatocellular Tumors” (J Nat Prod, 2024).

Active and inactive are the calls of the source. No cut-off for these calls is given here.

Holding throughout (assay type): cell-based
For experiment [1], the target named is N6-adenosine-methyltransferase catalytic subunit (Homo sapiens) (UniProt Q86U44). Description: Inhibition of METTL3 in human Lenvatinib-resistant Huh7/Len cells assessed as effect on SLC7A11 mRNA expression level at 2 uM incubated for 72 hrs by RT-PCR analysis.
Sequence of N6-adenosine-methyltransferase catalytic subunit (Homo sapiens) (Q86U44 whole entry): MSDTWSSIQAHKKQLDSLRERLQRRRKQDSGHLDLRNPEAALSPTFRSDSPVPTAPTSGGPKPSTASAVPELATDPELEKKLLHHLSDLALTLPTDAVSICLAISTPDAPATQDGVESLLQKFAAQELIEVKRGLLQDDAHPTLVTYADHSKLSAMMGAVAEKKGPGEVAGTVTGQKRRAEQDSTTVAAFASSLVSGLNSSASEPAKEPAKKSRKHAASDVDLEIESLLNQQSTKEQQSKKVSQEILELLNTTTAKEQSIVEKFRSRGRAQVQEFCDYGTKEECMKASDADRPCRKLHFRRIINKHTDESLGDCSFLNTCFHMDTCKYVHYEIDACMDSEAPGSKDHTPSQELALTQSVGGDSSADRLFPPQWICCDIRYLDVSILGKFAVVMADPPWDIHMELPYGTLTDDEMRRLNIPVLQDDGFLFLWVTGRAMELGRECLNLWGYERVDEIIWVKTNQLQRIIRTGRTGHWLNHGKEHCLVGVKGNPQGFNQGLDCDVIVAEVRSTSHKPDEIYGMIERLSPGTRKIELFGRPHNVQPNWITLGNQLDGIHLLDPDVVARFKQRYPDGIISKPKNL
Experiment [2] has the same target. As to the kind of experiment: Inhibition of METTL3 in human Lenvatinib-resistant Huh7/Len cells assessed as effect on LATS1 mRNA expression level at 2 uM incubated for 72 hrs by RT-PCR analysis.
Experiment [3] has the same target. Description: Inhibition of METTL3 in human Lenvatinib-resistant Huh7/Len cells assessed as effect on HNF4A mRNA expression level at 2 uM incubated for 72 hrs by RT-PCR analysis.
For experiment [4] the target is unchanged. As to the kind of experiment: Inhibition of METTL3 in human Lenvatinib-resistant Huh7/Len cells assessed as effect on IFFO1 mRNA expression level at 2 uM incubated for 72 hrs by RT-PCR analysis.
Experiment [5] has the same target. Description: Inhibition of METTL3 in human Huh-7 cells assessed as down regulation of m6A RNA level at 2 uM incubated for 72 hrs by colorimetric analysis.
The target is the same in experiment [6]. Description: Inhibition of METTL3 in human Lenvatinib-resistant Huh7/Len cells assessed as effect on MMP3 mRNA expression level at 2 uM incubated for 72 hrs by RT-PCR analysis.
The target is the same in experiment [7]. Description: Inhibition of METTL3 in human Lenvatinib-resistant Huh7/Len cells assessed as effect on TIBIM6 mRNA expression level at 2 uM incubated for 72 hrs by RT-PCR analysis.
For experiment [8] the target is unchanged. As to the kind of experiment: Inhibition of METTL3 in human Lenvatinib-resistant Huh7/Len cells assessed as effect on ADAMTS9 mRNA expression level at 2 uM incubated for 72 hrs by RT-PCR analysis.
For experiment [9] the target is unchanged. Description: Inhibition of METTL3 in human Lenvatinib-resistant Huh7/Len cells assessed as effect on UCK2 mRNA expression level at 2 uM incubated for 72 hrs by RT-PCR analysis.
Experiment [10] has the same target. As to the kind of experiment: Inhibition of METTL3 in human Lenvatinib-resistant Huh7/Len cells assessed as effect on TET1 mRNA expression level at 2 uM incubated for 72 hrs by RT-PCR analysis.
Experiment [11] has the same target. As to the kind of experiment: Inhibition of METTL3 in human Lenvatinib-resistant Huh7/Len cells assessed as effect on MYC mRNA expression level at 2 uM incubated for 72 hrs by RT-PCR analysis.
Experiment [12] has the same target. Description: Inhibition of METTL3 in human Lenvatinib-resistant Huh7/Len cells assessed as effect on CTSL mRNA expression level at 2 uM incubated for 72 hrs by RT-PCR analysis.
Experiment [13] shares this target. As to the kind of experiment: Inhibition of METTL3 in human Lenvatinib-resistant Huh7/Len cells assessed as effect on CRB3 mRNA expression level at 2 uM incubated for 72 hrs by RT-PCR analysis.
The target is the same in experiment [14]. Description: Inhibition of METTL3 in human Lenvatinib-resistant Huh7/Len cells assessed as effect on FGFR3 mRNA expression level at 2 uM incubated for 72 hrs by RT-PCR analysis.
The target is the same in experiment [15]. Description: Inhibition of METTL3 in human Lenvatinib-resistant Huh7/Len cells assessed as effect on NPCL1 mRNA expression level at 2 uM incubated for 72 hrs by RT-PCR analysis.
The target is the same in experiment [16]. Description: Inhibition of METTL3 in human Lenvatinib-resistant Huh7/Len cells assessed as effect on DEK mRNA expression level at 2 uM incubated for 72 hrs by RT-PCR analysis.
The target is the same in experiment [17]. Description: Inhibition of METTL3 in human Lenvatinib-resistant Huh7/Len cells assessed as effect on AKT1 mRNA expression level at 2 uM incubated for 72 hrs by RT-PCR analysis.
The target is the same in experiment [18]. As to the kind of experiment: Inhibition of METTL3 in human Lenvatinib-resistant Huh7/Len cells assessed as effect on GATA3 mRNA expression level at 2 uM incubated for 72 hrs by RT-PCR analysis.
Experiment [19] has the same target. Description: Inhibition of METTL3 in human Lenvatinib-resistant Huh7/Len cells assessed as effect on IFIT2 mRNA expression level at 2 uM incubated for 72 hrs by RT-PCR analysis.
For experiment [20] the target is unchanged. As to the kind of experiment: Inhibition of METTL3 in human Lenvatinib-resistant Huh7/Len cells assessed as effect on EZH2 mRNA expression level at 2 uM incubated for 72 hrs by RT-PCR analysis.
Experiment [21] has the same target. Description: Inhibition of METTL3 in human Lenvatinib-resistant Huh7/Len cells assessed as effect on MMP13 mRNA expression level at 2 uM incubated for 72 hrs by RT-PCR analysis.

Regarding `O=C(NCc1cn2cc(CNCC3CCCCC3)ccc2n1)c1cc(=O)n2ccccc2n1`, the inhibition result in experiment [1], in [2], in experiment [3], in experiment [4], in [6] and in experiment [7] was “Active” each time. Besides, the inhibition entry in [8], in experiment [9], in experiment [10], in [11], in experiment [12] and in experiment [13] was “Active” each time. Moreover, the inhibition result in experiment [14], in [15], in [16], in experiment [17], in experiment [18] and in [19] was “Active” throughout. Moreover, the inhibition entry in experiment [20] and in experiment [21] was “Active” throughout. Moreover, the inhibition in experiment [5] was 18%.

As usually defined, the inhibition is the drop in the measured response relative to a control, in per cent.
